# Experimental data from patent US6310091A, “Fungicidal saponin, CAY-1, and isolation thereof from Capsium species fruit” (The United States of America as represented by the …, priority 2000, dated 2001).
# Where “and” joins values, the source holds several entries; their conditions need not be identical. Equal values may be shown once. Read-outs that look alike come from different tables or passages of the source.
# Tests used:
# Aspergillus flavus = assay: Time course study against germinating conidia of A. flavus; assay type: cell-based; conditions: Aspergillus flavus; for activity at 4 µM / activity at 5 µM / activity at 7.5 µM / activity at 10 µM / activity at 2 µM / activity at 3 µM: read-out: Percent of Mean Control
# Procedure: 1. Filamentous fungi. Filamentous fungi used in bioassays included Aspergillus flavus, A. fumigatus, A. niger, A. parasiticus and Fusarium oxysporum. The fungicidal properties of CAY-1 for the nongerminated and germinating conidia of these fungi were determined separately as described by De Lucca et al. [Med. Mycol., 36:291-298 (1998)] and De Lucca et al. [Antimicrob. Agents Chemother. 43:371-373 (1999)]. […] Two separate experiments were conducted in each medium (n=8 per medium).
# A suspension of the aforementioned fungi were prepared separately in the appropriate medium. Conidia (10^4 conidia/ml) were used immediately for the nongerminated conidial assays while conidia (10^5 conidia/ml) were incubated for 7.5 hours at 30° C. to obtain germinating conidia. Serial dilutions of CAY-1 were prepared in the appropriate medium (totaling 225 μl) to which was added 25 μl of the conidial suspensions. The control consisted of 225 μl of medium and 25 μl of the conidial suspension. After mixing, the samples were incubated for 30 min (30° C.). Samples were then spread on potato dextrose agar plates which were incubated at 30° C. for 24 hours. Colonies were then enumerated.
# 4. Time course study. The effect of time and concentration on the activity of CAY-1 was determined against the germinating conidia of A. flavus in 1% (w/v) PBD. Bioassays were performed twice as described above (n=8).
# Statistical analyses. ANOVA analyses on ranks for nonparametric data were performed for the bioassays described in this example.
# HeLa cells = assay: Mammalian cytotoxicity, HeLa cells (neutral red); assay type: cell-based, Human; conditions: at concentrations effective against the fungi and yeast
# Procedure: (§1) 1. HeLa cells. Human epitheloid cervical carcinoma cells (ATCC2.2CCL) were grown in MEM media (Mediatech), supplemented with fetal bovine sera and penicillin (De Lucca et al., Antimicrob. Agents Chemother., 1999, 43:371-373). The cells were rinsed with PBS and harvested using trypsin. Cell count was determined manually using trypan blue and cells were diluted to a final concentration of 2.5×10^5 […]. Aliquots of 100 μl were dispensed per well into a 96-well plate. Cells were incubated overnight (18-24 hours) at 37° C. in a humidified 5% (v/v) CO2 environment. Neutral red dye solution was then added to each well culture and re-incubated for 3 hours. Two-fold serial dilutions of CAY-1 were prepared and aliquoted to final concentrations of 5, 10, 20, 30, and 60 μM (6, 12, 25, 37 and 74 μg/ml, respectively). Negative controls without CAY-1 were included. Cells were exposed to the saponin for 1 hour. Supernatants from each well were transferred into another 96-well plate. The remaining cells were lysed using a 2% Triton solution. Glacial acetic acid was then added to supernatants and lysates, and absorbance was read at A540.
# [1] = Mammalian cytotoxicity, HeLa cells (neutral red); assay type: cell-based, Human; conditions: human, hela cells
# Procedure: as §1
# Pneumocystis carinii = assay: Effect on Pneumocystis carinii viability (ATP-driven bioluminescent assay); assay type: cell-based; conditions: for activity at 10 µM / activity at 2.5 µM / activity at 5 µM / activity at 20 µM / activity at 40 µM / activity at 80 µM: read-out: Percent of Control Mean; for activity at 2.5 µM: 3.2 μg/ml; for activity at 5 µM: 6.3 μg/ml; for activity at 20 µM: 25 μg/ml; for activity at 40 µM: 50 μg/ml; for activity at 80 µM: 100 μg/ml
# Procedure: 3. Pneumocystis carinii. The effect of CAY-1 on Pneumocystis carinii was determined as described previously [Cushion et al., Antimicrob. Agents Chemother., 1997, 41:379-384, herein incorporated by reference]. This assay is based on an ATP-driven bioluminescent reaction and was used to determine the concentration of CAY-1 which decreased the P. carinii ATP pools.
# [2] = Pneumocystis carinii, 24 h, Day 1
# [3] = Pneumocystis carinii, 48 h, Day 2
# [4] = Pneumocystis carinii, 72 h, Day 3
structure (smiles),measurement,setting,value
CC1CCC2(OC1)OC1CC3C4CCC5CC(OC6OC(CO)C(OC7OC(CO)C(O)C(OC8OC(CO)C(O)C(OC9OC(CO)C(O)C(O)C9O)C8O)C7OC7OC(CO)C(O)C(O)C7O)C(O)C6O)C(O)CC5(C)C4CCC3(C)C1C2C (stereo not shown) [CAY-1],activity at 4 µM,"Aspergillus flavus; 10 min, 1% PDB",89.7%
same,activity at 5 µM,"Aspergillus flavus; 10 min, 1% PDB",63.4%
same,activity at 7.5 µM,"Aspergillus flavus; 10 min, 1% PDB",24.7%
same,activity at 10 µM,"Aspergillus flavus; 10 min, 1% PDB",18.7%
same,minimal effective concentration,"Aspergillus flavus; 10 min, 10 minutes post-incubation, 1% PDB, p=0.0001, read-out: concentration required for significant activity",5 µM and 6.2 µg/mL
same,IC95,"Aspergillus flavus; 0.25 h, read-out: LD95",10 µM and 12.4 µg/mL
same,activity at 2 µM,"Aspergillus flavus; 0.25 h, 15 min, 1% PDB",98.4%
same,activity at 3 µM,"Aspergillus flavus; 0.25 h, 15 min, 1% PDB",103%
same,activity at 4 µM,"Aspergillus flavus; 0.25 h, 15 min, 1% PDB",85.2%
same,activity at 5 µM,"Aspergillus flavus; 0.25 h, 15 min, 1% PDB",60.6%
same,activity at 7.5 µM,"Aspergillus flavus; 0.25 h, 15 min, 1% PDB",22%
same,activity at 10 µM,"Aspergillus flavus; 0.25 h, 15 min, 1% PDB",3.4%
same,activity at 2 µM,"Aspergillus flavus; 20 min, 1% PDB",98.9%
same,activity at 3 µM,"Aspergillus flavus; 20 min, 1% PDB",87%
same,activity at 4 µM,"Aspergillus flavus; 20 min, 1% PDB",68%
same,activity at 5 µM,"Aspergillus flavus; 20 min, 1% PDB",41.5%
same,activity at 7.5 µM,"Aspergillus flavus; 20 min, 1% PDB",8.6%
same,activity at 10 µM,"Aspergillus flavus; 20 min, 1% PDB",3.3%
same,activity at 2 µM,"Aspergillus flavus; 0.5 h, 30 min, 1% PDB",90.1%
same,activity at 3 µM,"Aspergillus flavus; 0.5 h, 30 min, 1% PDB",74.4%
same,activity at 4 µM,"Aspergillus flavus; 0.5 h, 30 min, 1% PDB",54.2%
same,activity at 5 µM,"Aspergillus flavus; 0.5 h, 30 min, 1% PDB",34.9%
same,activity at 7.5 µM,"Aspergillus flavus; 0.5 h, 30 min, 1% PDB",11%
same,activity at 10 µM,"Aspergillus flavus; 0.5 h, 30 min, 1% PDB",8.4%
same,lethality to mammalian cells,HeLa cells,not lethal
same,MCC at 1 h,[1],30 µM and 37 µg/mL
same,"cytotoxicity at 1 h, 30 µM",[1],~13%
same,"cytotoxicity at 1 h, 60 µM",[1],~32%
same,effectiveness compared with pentamidine,"Pneumocystis carinii; 25 and 50 μg/ml (20.2 and 40.3 μM) vs pentamidine 10 μg/ml, 29 μM","as, or more effective, than pentamidine"
same,IC50,Pneumocystis carinii; Pneumocystis carinii,11.8 µg/mL and 9.5 µM
same,activity at 10 µM,"Pneumocystis carinii; Pneumocystis carinii, 24 h",43.1%
same,activity at 2.5 µM,Pneumocystis carinii; [2],94.7%
same,activity at 5 µM,Pneumocystis carinii; [2],70.1%
same,activity at 20 µM,Pneumocystis carinii; [2],18%
same,activity at 40 µM,Pneumocystis carinii; [2],10%
same,activity at 80 µM,Pneumocystis carinii; [2],3.1%
same,killing at 10 µM,"Pneumocystis carinii; Pneumocystis carinii, 48 h, read-out: P. carinii killed",≥ 34.6%
same,activity at 10 µM,"Pneumocystis carinii; Pneumocystis carinii, 48 h",11.8%
same,activity at 2.5 µM,Pneumocystis carinii; [3],98.2%
same,activity at 5 µM,Pneumocystis carinii; [3],56.9%
same,activity at 20 µM,Pneumocystis carinii; [3],5.5%
same,activity at 40 µM,Pneumocystis carinii; [3],2.2%
same,activity at 80 µM,Pneumocystis carinii; [3],0.9%
same,killing at 40.3 µM,"Pneumocystis carinii; Pneumocystis carinii, 72 h, read-out: P. carinii cells killed",93%
same,activity at 10 µM,"Pneumocystis carinii; Pneumocystis carinii, 72 h",12.1%
same,activity at 2.5 µM,Pneumocystis carinii; [4],99.8%
same,activity at 5 µM,Pneumocystis carinii; [4],46.6%
same,activity at 20 µM,Pneumocystis carinii; [4],3.3%
same,activity at 40 µM,Pneumocystis carinii; [4],1%
same,activity at 80 µM,Pneumocystis carinii; [4],0.3%
same,minimal effective concentration,"Pneumocystis carinii; Pneumocystis carinii, read-out: concentration at which lethality begins",5 µM
same,minimal effective concentration,"Pneumocystis carinii; Pneumocystis carinii, read-out: lowest effective level in vitro",~5 µM
